Reference: ChEMBL document CHEMBL1201862, “PubChem BioAssay data set” (2004)
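48-hour exposure; five concentrations; linearly interpolated endpoints. GI50 marks 50% less growth.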 Calls of active or inactive are those of the source. Cut-off read from the data, not from the text of the source: active = GI50 up to about 1.1 µM and inactive = higher.

What was measured:
Test in all cases: DTP human tumour cell line panel, 48 h
[1] = test system: 786-0
[2] = test system: A498
[3] = test system: A549
[4] = test system: ACHN
[5] = test system: CAKI-1
[6] = test system: CCRF-CEM
[7] = test system: COLO 205
[8] = test system: DLD-1
[9] = test system: DMS-114
[10] = test system: DMS-273
[11] = test system: EKVX
[12] = test system: HCC 2998
[13] = test system: HCT-116
[14] = test system: HCT-15
[15] = test system: HL-60
[16] = test system: HOP-18
[17] = test system: HOP-62
[18] = test system: HOP-92
[19] = test system: HT-29
[20] = test system: IGROV-1
[21] = test system: K562
[22] = test system: KM12
[23] = test system: LOX IMVI
[24] = test system: LXFL 529
[25] = test system: M14
[26] = test system: MOLT-4
[27] = test system: Malme-3M
[28] = test system: NCI-H226
[29] = test system: NCI-H23
[30] = test system: NCI-H460
[31] = test system: NCI-H522
[32] = test system: OVCAR-3
[33] = test system: OVCAR-4
[34] = test system: OVCAR-5
[35] = test system: OVCAR-8
[36] = test system: RPMI-8226
[37] = test system: RXF 631
[38] = test system: SF-268
[39] = test system: SF-295
[40] = test system: SK-MEL-28
[41] = test system: SK-MEL-2
[42] = test system: SK-OV-3
[43] = test system: SN12C
[44] = test system: SNB-19
[45] = test system: SNB-75
[46] = test system: SNB-78
[47] = test system: SW-620
[48] = test system: TK-10
[49] = test system: U-251
[50] = test system: UACC-257
[51] = test system: UACC-62
[52] = test system: UO-31
[53] = test system: XF498
[54] = test system: KM-20L2
[55] = test system: M19-MEL
[56] = test system: SF-539
[57] = test system: SK-MEL-5
[58] = test system: SR
[59] = test system: RXF 393

COC(=O)C1CC/C(=N\c2cccc(C(F)(F)F)c2)N1 (stereo not given)
GI50 [1]: > 100 µM (inactive) | GI50 [2]: > 100 µM (inactive) | GI50 [3]: > 100 µM (inactive) | GI50 [4]: > 100 µM (inactive) | GI50 [5]: > 100 µM (inactive) | GI50 [6]: > 100 µM (inactive) | GI50 [7]: > 100 µM (inactive) | GI50 [8]: > 100 µM (inactive) | GI50 [9]: > 100 µM (inactive) | GI50 [10]: > 100 µM (inactive) | GI50 [11]: > 100 µM (inactive) | GI50 [12]: > 100 µM (inactive) | GI50 [13]: > 100 µM (inactive) | GI50 [14]: > 100 µM | GI50 [15]: > 100 µM (inactive) | GI50 [16]: > 100 µM (inactive) | GI50 [17]: > 100 µM (inactive) | GI50 [18]: > 100 µM (inactive) | GI50 [19]: > 100 µM (inactive) | GI50 [20]: > 100 µM (inactive) | GI50 [21]: > 100 µM (inactive) | GI50 [22]: > 100 µM (inactive) | GI50 [23]: > 100 µM (inactive) | GI50 [24]: > 100 µM (inactive) | GI50 [25]: > 100 µM (inactive) | GI50 [26]: > 100 µM (inactive) | GI50 [27]: > 100 µM (inactive) | GI50 [28]: > 100 µM (inactive) | GI50 [29]: > 100 µM (inactive) | GI50 [30]: > 100 µM (inactive) | GI50 [31]: > 100 µM (inactive) | GI50 [32]: > 100 µM (inactive) | GI50 [33]: > 100 µM (inactive) | GI50 [34]: > 100 µM (inactive) | GI50 [35]: > 100 µM (inactive) | GI50 [36]: > 100 µM (inactive) | GI50 [37]: > 100 µM (inactive) | GI50 [38]: > 100 µM (inactive) | GI50 [39]: > 100 µM (inactive) | GI50 [40]: > 100 µM (inactive) | GI50 [41]: > 100 µM (inactive) | GI50 [42]: > 100 µM (inactive) | GI50 [43]: > 100 µM (inactive) | GI50 [44]: > 100 µM (inactive) | GI50 [45]: > 100 µM (inactive) | GI50 [46]: > 100 µM (inactive) | GI50 [47]: > 100 µM (inactive) | GI50 [48]: > 100 µM (inactive) | GI50 [49]: > 100 µM (inactive) | GI50 [50]: > 100 µM (inactive) | GI50 [51]: > 100 µM (inactive) | GI50 [52]: > 100 µM (inactive) | GI50 [53]: > 100 µM (inactive)

CC(C)(O)[C@@H]1CC[C@@]2(C)CCC[C@H](O)[C@H]2C1
GI50 [1]: > 100 µM (inactive) | GI50 [2]: > 100 µM (inactive) | GI50 [3]: > 100 µM (inactive) | GI50 [4]: > 100 µM (inactive) | GI50 [5]: > 100 µM (inactive) | GI50 [6]: > 100 µM (inactive) | GI50 [7]: > 100 µM (inactive) | GI50 [8]: > 100 µM (inactive) | GI50 [9]: > 100 µM (inactive) | GI50 [10]: > 100 µM (inactive) | GI50 [12]: > 100 µM (inactive) | GI50 [13]: > 100 µM (inactive) | GI50 [14]: > 100 µM | GI50 [15]: > 100 µM (inactive) | GI50 [16]: > 100 µM (inactive) | GI50 [17]: > 100 µM (inactive) | GI50 [18]: > 100 µM (inactive) | GI50 [19]: > 100 µM (inactive) | GI50 [20]: > 100 µM (inactive) | GI50 [21]: > 100 µM (inactive) | GI50 [54]: > 100 µM (inactive) | GI50 [22]: > 100 µM (inactive) | GI50 [23]: > 100 µM (inactive) | GI50 [24]: > 100 µM (inactive) | GI50 [25]: > 100 µM (inactive) | GI50 [55]: > 100 µM (inactive) | GI50 [26]: > 100 µM (inactive) | GI50 [27]: > 100 µM (inactive) | GI50 [28]: > 100 µM (inactive) | GI50 [29]: > 100 µM (inactive) | GI50 [30]: > 100 µM (inactive) | GI50 [31]: > 100 µM (inactive) | GI50 [32]: > 100 µM (inactive) | GI50 [33]: > 100 µM (inactive) | GI50 [34]: > 100 µM (inactive) | GI50 [35]: > 100 µM (inactive) | GI50 [36]: > 100 µM (inactive) | GI50 [37]: > 100 µM (inactive) | GI50 [38]: > 100 µM (inactive) | GI50 [39]: > 100 µM (inactive) | GI50 [56]: > 100 µM (inactive) | GI50 [40]: > 100 µM (inactive) | GI50 [41]: > 100 µM (inactive) | GI50 [57]: > 100 µM (inactive) | GI50 [42]: > 100 µM (inactive) | GI50 [43]: > 100 µM (inactive) | GI50 [44]: > 100 µM (inactive) | GI50 [45]: > 100 µM (inactive) | GI50 [58]: > 100 µM (inactive) | GI50 [47]: > 100 µM (inactive) | GI50 [48]: > 100 µM (inactive) | GI50 [49]: > 100 µM (inactive) | GI50 [50]: > 100 µM (inactive) | GI50 [51]: > 100 µM (inactive) | GI50 [52]: > 100 µM (inactive) | GI50 [53]: > 100 µM (inactive)

C/C(=C1/N=C(c2cc([N+](=O)[O-])ccc2Cl)N(c2cccc(C)c2)C1=O)c1cc2ccccc2oc1=O
GI50 [1]: > 100 µM (inactive) | GI50 [2]: > 100 µM (inactive) | GI50 [3]: > 100 µM (inactive) | GI50 [4]: 48.8 µM (inactive) | GI50 [5]: > 100 µM (inactive) | GI50 [6]: 23.3 µM (inactive) | GI50 [7]: 45.3 µM (inactive) | GI50 [8]: 31.7 µM (inactive) | GI50 [9]: 27.1 µM (inactive) | GI50 [10]: 80.7 µM (inactive) | GI50 [11]: > 100 µM (inactive) | GI50 [12]: > 100 µM (inactive) | GI50 [13]: 47.4 µM (inactive) | GI50 [14]: 36.7 µM | GI50 [15]: 28.7 µM (inactive) | GI50 [16]: 74.6 µM (inactive) | GI50 [17]: > 100 µM (inactive) | GI50 [18]: 76.2 µM (inactive) | GI50 [19]: 58.5 µM (inactive) | GI50 [20]: 45.1 µM (inactive) | GI50 [21]: 33.7 µM (inactive) | GI50 [54]: > 100 µM (inactive) | GI50 [22]: 64 µM (inactive) | GI50 [23]: 16.7 µM (inactive) | GI50 [24]: 84.9 µM (inactive) | GI50 [25]: > 100 µM (inactive) | GI50 [55]: 66.2 µM (inactive) | GI50 [26]: 21.3 µM (inactive) | GI50 [27]: > 100 µM (inactive) | GI50 [28]: 43.6 µM (inactive) | GI50 [29]: 35.2 µM (inactive) | GI50 [30]: 47.8 µM (inactive) | GI50 [31]: 13.6 µM (inactive) | GI50 [32]: 28.3 µM (inactive) | GI50 [34]: > 100 µM (inactive) | GI50 [35]: > 100 µM (inactive) | GI50 [36]: 20.4 µM (inactive) | GI50 [59]: 59.6 µM (inactive) | GI50 [37]: > 100 µM (inactive) | GI50 [38]: > 100 µM (inactive) | GI50 [39]: > 100 µM (inactive) | GI50 [40]: > 100 µM (inactive) | GI50 [41]: > 100 µM (inactive) | GI50 [57]: 14 µM (inactive) | GI50 [42]: > 100 µM (inactive) | GI50 [43]: > 100 µM (inactive) | GI50 [44]: 95.5 µM (inactive) | GI50 [45]: > 100 µM (inactive) | GI50 [46]: > 100 µM (inactive) | GI50 [58]: 30.3 µM (inactive) | GI50 [47]: 29.4 µM (inactive) | GI50 [48]: > 100 µM (inactive) | GI50 [50]: 17.3 µM (inactive) | GI50 [51]: 21.8 µM (inactive) | GI50 [52]: > 100 µM (inactive) | GI50 [53]: 21 µM (inactive)
